Experimental data taken from article PMC10098502, “Characterization of the molecular mechanisms of silicon uptake in coccolithophores” (Environmental Microbiology, 2022).

Test system: T1, CbSITL
T1 construct: gene SITL
Details: Na+-dependent; 150 mM external NaCl, 50 mM Tris pH 7.4, internal 150 mM KCl and 6 mM Zn acetate, valinomycin; sigmoidal rate curve

O[Si](O)(O)O [silicic acid]
Km: 31.8 ± 2.5 µM
